Values quoted from earlier work, collected in patent publication US10456335B2, “Oral hygiene compositions and methods” (Carson Laboratories, I.P., Inc., priority 2008, dated 2019).

Conditions: eight hour time weighted average

## OO [hydrogen peroxide]
  OSHA permissible exposure limit: 1 ppm
